The values below come from patent US20200347043A1, “MODULATORS OF THE INTEGRATED STRESS PATHWAY” (Calico Life Sciences LLC, priority 2019, published 2020).

As a reminder, the EC50 is the concentration that produces a half-maximal response.

The assay relates to HEK293T cells carrying the ATF4 luciferase reporter. The assay is described as follows: ATF4-Luc assay (in vitro model of VWMD). The settings on record: Homo sapiens, HEK-293T, 1 μg/mL tunicamycin, 7 hours, One Glo luminescence. It counts as cell-based, human. The protocol:
In order to test exemplary compounds of the invention in a cellular context, a stable VWMD cell line was first constructed. The ATF4 reporter was prepared by fusing the human full-length ATF4 5′-UTR (NCBI Accession No. BC022088.2) in front of the firefly luciferase (FLuc) coding sequence lacking the initiator methionine as described in Sidrauski et al (eLife 2013). The construct was used to produce recombinant retroviruses using standard methods and the resulting viral supernatant was used to transduce HEK293T cells, which were then subsequently selected with puromycin to generate a stable cell line.
HEK293T cells carrying the ATF4 luciferase reporter were plated on polylysine coated 384-well plates (Greiner Bio-one) at 30,000 cells per well. Cells were treated the next day with 1 μg/mL tunicamycin and 200 nM of a compound of Formula (I) for 7 hours. Luminescence was measured using One Glo (Promega) as specified by the manufacturer. Cells were maintained in DMEM with L-glutamine supplemented with 10% heat-inactivated FBS (Gibco) and Antibiotic-Antimycotic solution (Gibco).
Table 4 below summarizes the EC50 data obtained using the ATF4-Luc assay for exemplary compounds of the invention.
For `O=C(N[C@@H]1C[C@@H]2O[C@H]1C[C@H]2c1nnc([C@H]2C[C@@H](OC(F)(F)F)C2)o1)[C@H]1C[C@@H](O)c2cc(Cl)ccc2O1` (mixture of isomers) [Compound 187], the concentration for a half-maximal effect (EC50) was in the range of 50 to 250 nM.
Regarding `O=C(N[C@H]1C[C@@H](OC(F)(F)F)C1)[C@H]1C[C@H]2O[C@@H]1C[C@@H]2NC(=O)[C@H]1C[C@@H](O)c2cc(Cl)ccc2O1` (mixture of isomers) [Compound 219, (2R,4R)-6-chloro-4-hydroxy-N-[(1RS,2SR,4RS,5SR)-5-{[cis-3-(trifluoromethoxy)cyclobutyl]carbamoyl}-7-oxabicyclo[2.2.1]heptan-2-yl]-3,4-dihydro-2H-1-benzopyran-2-carboxamide], the EC50 was 500 to 2000 nM.
For `O=C1C[C@H](C(=O)NC23CC(NC(=O)[C@@H]4C[C@@H]4COC(F)(F)F)(C2)C3)Oc2ccc(Cl)cc21` (mixture of isomers) [Compound 296, (2R)-6-chloro-4-oxo-N-[3-({(1RS,2SR)-2-[(trifluoromethoxy)methyl]cyclopropane-1-carbonyl}amino)bicyclo[1.1.1]pentan-1-yl]-3,4-dihydro-2H-1-benzopyran-2-carboxamide], the EC50 is 500 to 2000 nM.
Take `O=C(NC12CC(NC(=O)[C@@H]3C[C@@H]3COC(F)(F)F)(C1)C2)[C@H]1C[C@@H](O)c2cc(Cl)ccc2O1` (mixture of isomers) [Compound 299, (2R,4R)-6-chloro-4-hydroxy-N-[3-({(1RS,2SR)-2-[(trifluoromethoxy)methyl]cyclopropane-1-carbonyl}amino)bicyclo[1.1.1]pentan-1-yl]-3,4-dihydro-2H-1-benzopyran-2-carboxamide]: the EC50 lay within 500 to 2000 nM.
In the case of `O=C(NCc1ccc(C(F)(F)F)cn1)[C@H]1C[C@H]2O[C@@H]1C[C@@H]2NC(=O)[C@H]1C[C@@H](O)c2cc(Cl)ccc2O1` (mixture of isomers) [Compound 313, (2R,4R)-6-chloro-4-hydroxy-N-[(1RS,2SR,4RS,5SR)-5-({[5-(trifluoromethyl)pyridin-2-yl]methyl}carbamoyl)-7-oxabicyclo[2.2.1]heptan-2-yl]-3,4-dihydro-2H-1-benzopyran-2-carboxamide], the EC50 was in the range of 250 to 500 nM.
The figure for `O=C(COc1ccc(Cl)c(F)c1)NC12CC(C(=O)NC[C@H]3C[C@@H](O)c4cc(Cl)ccc4O3)(C1)C2` (racemic) [Compound 104, 3-[2-(4-chloro-3-fluorophenoxy)acetamido]-N-{[rac-(2R,4R)-6-chloro-4-hydroxy-3,4-dihydro-2H-1-benzopyran-2-yl]methyl}bicyclo[1.1.1]pentane-1-carboxamide] is 10 to 50 nM.
The figure for `O=C(CO[C@H]1C[C@@H](OC(F)(F)F)C1)NC12CC(NC(=O)[C@H]3C[C@@H](O)c4cc(Cl)ccc4O3)(C1)C2` (racemic) [Compound 114, rac-(2R,4R)-6-chloro-4-hydroxy-N-[3-(2-{[(1s,3s)-3-(trifluoromethoxy)cyclobutyl]oxy}acetamido)bicyclo[1.1.1]pentan-1-yl]-3,4-dihydro-2H-1-benzopyran-2-carboxamide] is < 10 nM; for `O=C(NCc1ccc(C(F)(F)F)cc1)[C@@H]1CC[C@@H](NC(=O)[C@H]2C[C@@H](O)c3cc(Cl)ccc3O2)CO1` (racemic) [Compound 121, (2R,4R)-6-chloro-4-hydroxy-N-[(3R,6S)-6-({[4-(trifluoromethyl)phenyl]methyl}carbamoyl)oxan-3-yl]-3,4-dihydro-2H-1-benzopyran-2-carboxamide and (2S,4S)-6-chloro-4-hydroxy-N-[(3R,6S)-6-({[4-(trifluoromethyl)phenyl]methyl}carbamoyl)oxan-3-yl]-3,4-dihydro-2H-1-benzopyran-2-carboxamide] it is 10 to 50 nM; for `O=C(N[C@@H]1CC[C@@H](C(=O)N2CC(Oc3ccc(Cl)cc3)C2)OC1)[C@H]1C[C@@H](O)c2cc(Cl)ccc2O1` (racemic) [Compound 122, (2R,4R)-6-chloro-N-(3R,6S)-6-[3-(4-chlorophenoxy)azetidine-1-carbonyl]oxan-3-yl)-4-hydroxy-3,4-dihydro-2H-1-benzopyran-2-carboxamide and (2S,4S)-6-chloro-N-{(3R,6S)-6-[3-(4-chlorophenoxy)azetidine-1-carbonyl]oxan-3-yl}-4-hydroxy-3,4-dihydro-2H-1-benzopyran-2-carboxamide] it is 10 to 50 nM.
The same measure for `O=C(NC12CC(C(=O)NCc3ccc(C(F)(F)F)cn3)(C1)C2)[C@H]1C[C@@H](O)c2cc(Cl)ccc2O1` (racemic) [Compound 123, rac-(2R,4R)-6-chloro-4-hydroxy-N-[3-(([5-(trifluoromethyl)pyridin-2-yl]methyl)carbamoyl)bicyclo[1.1.1]pentan-1-yl]-3,4-dihydro-2H-1-benzopyran-2-carboxamide]: 50 to 250 nM; for `O=C(N[C@H]1CC[C@H](C(=O)NCc2nc3ccc(Cl)cc3[nH]2)CC1)[C@H]1C[C@@H](O)c2cc(Cl)ccc2O1` (racemic) [Compound 126, rac-(2R,4R)-6-chloro-N-[(1r,4R)-4-{[(6-chloro-1H-benzimidazol-2-yl)methyl]carbamoyl}cyclohexyl]-4-hydroxy-3,4-dihydro-2H-1-benzopyran-2-carboxamide]: 10 to 50 nM; for `O=C(NCc1cn2ccc(Cl)cc2n1)[C@@H]1CC[C@@H](NC(=O)[C@@H]2C[C@H](O)c3cc(Cl)ccc3O2)CO1` (racemic) [Compound 131, (2S,4S)-6-chloro-N-[(3R,6S)-6-{[(7-chloroimidazo[1,2-a]pyridin-2-yl)methyl]carbamoyl}oxan-3-yl]-4-hydroxy-3,4-dihydro-2H-1-benzopyran-2-carboxamide and (2R,4R)-6-chloro-N-[(3R,6S)-6-{[(7-chloroimidazo[1,2-a]pyridin-2-yl)methyl]carbamoyl}oxan-3-yl]-4-hydroxy-3,4-dihydro-2H-1-benzopyran-2-carboxamide]: 50 to 250 nM.
In the case of `O=C(N[C@H]1CC[C@H](N2CCN(c3cnc(C(F)F)cn3)C2=O)CC1)[C@H]1C[C@@H](O)c2cc(Cl)ccc2O1` (racemic) [Compound 136, rac-(2R,4R)-6-chloro-N-[(1r,4R)-4-{3-[5-(difluoromethyl)pyrazin-2-yl]-2-oxoimidazolidin-1-yl}cyclohexyl]-4-hydroxy-3,4-dihydro-2H-1-benzopyran-2-carboxamide], the EC50 was in the range of 50 to 250 nM.
The same measure for `O=C(COc1ccc(Cl)c(F)c1)NC1CC2(C1)CN(C(=O)[C@@H]1C[C@H](O)c3cc(Cl)ccc3O1)C2` (racemic) [Compound 145, 2-(4-chloro-3-fluorophenoxy)-N-{2-[rac-(2R,4R)-6-chloro-4-hydroxy-3,4-dihydro-2H-1-benzopyran-2-carbonyl]-2-azaspiro[3.3]heptan-6-yl}acetamide]: 50 to 250 nM.
The same measure for `O=C(NC12CCC(NC(=O)[C@H]3C[C@@H](OC(F)(F)F)C3)(CC1)[C@@H](O)C2)[C@@H]1C[C@H](O)c2cc(Cl)ccc2O1` (racemic) [Compound 147, (2S,4S)-6-chloro-4-hydroxy-N-[(3S)-3-hydroxy-4-{[(1s,3R)-3-(trifluoromethoxy)cyclobutane-1-carbonyl]amino}bicyclo[2.2.2]octan-1-yl]-3,4-dihydro-2H-1-benzopyran-2-carboxamide and (2R,4R)-6-chloro-4-hydroxy-N-[(3S)-3-hydroxy-4-{[(1s,3R)-3-(trifluoromethoxy)cyclobutane-1-carbonyl]amino}bicyclo[2.2.2]octan-1-yl]-3,4-dihydro-2H-1-benzopyran-2-carboxamide]: 250 to 500 nM; for `O=C(NC12CC(n3cnc(-c4ccc(F)c(F)c4)c3)(C1)C2)[C@H]1C[C@@H](O)c2cc(Cl)ccc2O1` (racemic) [Compound 149, rac-(2R,4R)-6-chloro-N-{3-[4-(3,4-difluorophenyl)-1H-imidazo-1-yl]bicyclo[1.1.1]pentan-1-yl}-4-hydroxy-3,4-dihydro-2H-1-benzopyran-2-carboxamide]: < 10 nM.
The figure for `O=C(NC12CC(c3nnc([C@H]4C[C@@H](OC(F)(F)F)C4)o3)(C1)C2)[C@H]1C[C@@H](O)c2cc(Cl)ccc2O1` (racemic) [Compound 159, rac-(2R,4R)-6-chloro-4-hydroxy-N-(3-{5-[(1s,3S)-3-(trifluoromethoxy)cyclobutyl]-1,3,4-oxadiazol-2-yl}bicyclo[1.1.1]pentan-1-yl)-3,4-dihydro-2H-1-benzopyran-2-carboxamide] is 10 to 50 nM; for `O=C(NC12CCC(c3nnc([C@H]4C[C@@H](OC(F)(F)F)C4)o3)(C1)C2)[C@H]1C[C@@H](O)c2cc(Cl)ccc2O1` (racemic) [Compound 160, rac-(2R,4R)-6-chloro-4-hydroxy-N-(4-{5-[(1s,3S)-3-(trifluoromethoxy)cyclobutyl]-1,3,4-oxadiazol-2-yl}bicyclo[2.1.1]hexan-1-yl)-3,4-dihydro-2H-1-benzopyran-2-carboxamide] it is 50 to 250 nM.
Consider `O=C(N[C@@H]1CC[C@@H](c2nnc([C@H]3C[C@@H](OC(F)(F)F)C3)o2)OC1)C1CC(O)c2cc(Cl)ccc2O1` (mixture of isomers) [Compound 161, (2RS,4RS)-6-chloro-4-hydroxy-N-[(3R,6)-6-{5-[cis-3-(trifluoromethoxy)cyclobutyl]-1,3,4-oxadiazol-2-yl}oxan-3-yl]-3,4-dihydro-2H-1-benzopyran-2-carboxamide], for which the concentration giving a half-maximal response (EC50) was < 10 nM.
